# Legend:
# SHP77 = assay: Antiproliferative activity against human SHP77 cells incubated for 72 hrs; format: functional, cell-based; conditions: SHP77, 72 h
# [1] = Antiproliferative activity against human NCI-H196 cells incubated for 72 hrs; format: functional, cell-based; conditions: NCI-H196, 72 h
# [2] = Antiproliferative activity against human L02 cells incubated for 72 hrs; format: toxicity, cell-based
# NCI-H146 = assay: Antiproliferative activity against human NCI-H146 cells incubated for 72 hrs; format: functional, cell-based; conditions: NCI-H146, 72 h
# [3] = Antiproliferative activity against human BEAS-2B cells incubated for 72 hrs; format: toxicity, cell-based
# NCI-H209 = assay: Antiproliferative activity against human NCI-H209 cells incubated for 72 hrs; format: functional, cell-based; conditions: NCI-H209, 72 h
# NCI-H446 = assay: Antiproliferative activity against human NCI-H446 cells incubated for 72 hrs; format: functional, cell-based; conditions: NCI-H446, 72 h
# NCI-H82 = assay: Antiproliferative activity against human NCI-H82 cells incubated for 72 hrs; format: functional, cell-based; conditions: NCI-H82, 72 h
# NCI-H1048 = assay: Antiproliferative activity against human NCI-H1048 cells incubated for 72 hrs; format: functional, cell-based; conditions: NCI-H1048, 72 h
smiles,measurement,setting,value
c1c(CN2CC3CCC(C2)O3)c(-c2cc3ccc4c(c3cn2)OCO4)cc2c1OCO2,IC50,SHP77,30.8 µM
same,IC50,[1],31.3 µM
same,IC50 at 72 h,[2],> 100 µM
same,IC50,NCI-H146,> 100 µM
same,IC50 at 72 h,[3],57.3 µM
same,IC50,NCI-H209,46.5 µM
same,IC50,NCI-H446,20.6 µM
OCC1CCN(Cc2cc3c(cc2-c2cc4ccc5c(c4cn2)OCO5)OCO3)C1 (centres undefined),IC50,SHP77,32.9 µM
same,IC50,NCI-H82,61.5 µM
same,IC50,NCI-H1048,34.6 µM
same,IC50,[1],36 µM
same,IC50 at 72 h,[2],43.2 µM
same,IC50,NCI-H146,17.1 µM
same,IC50 at 72 h,[3],26.2 µM
same,IC50,NCI-H209,56.6 µM
same,IC50,NCI-H446,68.4 µM
CC(O)C1CCN(Cc2cc3c(cc2-c2cc4ccc5c(c4cn2)OCO5)OCO3)CC1 (centres undefined),IC50,SHP77,28.4 µM
same,IC50,NCI-H82,47.7 µM
same,IC50,NCI-H1048,38.2 µM
same,IC50,[1],32.3 µM
same,IC50 at 72 h,[2],30.3 µM
same,IC50,NCI-H146,24.4 µM
same,IC50 at 72 h,[3],21.8 µM
same,IC50,NCI-H209,62.2 µM
same,IC50,NCI-H446,27.5 µM
FC(F)(F)C1CCN(Cc2cc3c(cc2-c2cc4ccc5c(c4cn2)OCO5)OCO3)CC1,IC50,SHP77,25.4 µM
same,IC50,NCI-H82,> 100 µM
same,IC50,NCI-H1048,> 100 µM
same,IC50,[1],34.5 µM
same,IC50 at 72 h,[2],56.3 µM
same,IC50,NCI-H146,39.8 µM
same,IC50 at 72 h,[3],> 100 µM
same,IC50,NCI-H209,> 100 µM
same,IC50,NCI-H446,15.5 µM
CC[C@@]1(O)C(=O)OCc2c1cc1n(c2=O)Cc2cc3c(CN(C)C)c(O)ccc3nc2-1 [TOPOTECAN],IC50,SHP77,0.19 µM
same,IC50,NCI-H82,0.41 µM
same,IC50,NCI-H1048,> 100 µM
same,IC50,[1],16.3 µM
same,IC50 at 72 h,[2],0.26 µM
same,IC50,NCI-H146,< 1.56 µM
same,IC50 at 72 h,[3],< 0.07 µM
same,IC50,NCI-H209,> 100 µM
same,IC50,NCI-H446,22 µM
CC(C)(C)C1CCN(Cc2cc3c(cc2-c2cc4ccc5c(c4cn2)OCO5)OCO3)CC1,IC50,SHP77,8.55 µM
same,IC50,NCI-H82,2.96 µM
same,IC50,NCI-H1048,2.68 µM
same,IC50,[1],7.5 µM
same,IC50 at 72 h,[2],> 100 µM
same,IC50,NCI-H146,10.1 µM
same,IC50 at 72 h,[3],> 100 µM
same,IC50,NCI-H209,> 100 µM
same,IC50,NCI-H446,7.1 µM
c1c(CN2CC3(CCC3)C2)c(-c2cc3ccc4c(c3cn2)OCO4)cc2c1OCO2,IC50,SHP77,37.6 µM
same,IC50,NCI-H82,58.1 µM
same,IC50,NCI-H1048,30.5 µM
same,IC50,[1],30.9 µM
same,IC50 at 72 h,[2],> 100 µM
same,IC50,NCI-H146,> 100 µM
same,IC50 at 72 h,[3],30.4 µM
same,IC50,NCI-H209,50.2 µM
same,IC50,NCI-H446,24.4 µM
CC(C)(O)C1CCN(Cc2cc3c(cc2-c2cc4ccc5c(c4cn2)OCO5)OCO3)CC1,IC50,SHP77,40.4 µM
same,IC50,NCI-H82,67.4 µM
same,IC50,NCI-H1048,56.1 µM
same,IC50,[1],53 µM
same,IC50 at 72 h,[2],38.2 µM
same,IC50,NCI-H146,> 100 µM
same,IC50 at 72 h,[3],30.1 µM
same,IC50,NCI-H209,64.9 µM
same,IC50,NCI-H446,28.7 µM
CC1CCN(Cc2cc3c(cc2-c2cc4ccc5c(c4cn2)OCO5)OCO3)CC1,IC50,SHP77,31.1 µM
same,IC50,NCI-H82,25.7 µM
same,IC50,NCI-H1048,12.3 µM
same,IC50,[1],26.3 µM
same,IC50 at 72 h,[2],34.9 µM
same,IC50,NCI-H146,44.1 µM
same,IC50 at 72 h,[3],23.7 µM
same,IC50,NCI-H209,55.8 µM
same,IC50,NCI-H446,42.7 µM
OCC1CN(Cc2cc3c(cc2-c2cc4ccc5c(c4cn2)OCO5)OCO3)C1,IC50,SHP77,63.4 µM
same,IC50,NCI-H82,80.3 µM
same,IC50,NCI-H1048,61.4 µM
same,IC50,[1],42.5 µM
same,IC50 at 72 h,[2],> 100 µM
same,IC50,NCI-H146,> 100 µM
same,IC50 at 72 h,[3],23 µM
same,IC50,NCI-H209,79.5 µM
same,IC50,NCI-H446,60.7 µM
FC1(F)CCCN(Cc2cc3c(cc2-c2cc4ccc5c(c4cn2)OCO5)OCO3)CC1,IC50,SHP77,31.3 µM
same,IC50,NCI-H82,31.3 µM
same,IC50,NCI-H1048,19.1 µM
same,IC50,[1],56.4 µM
same,IC50 at 72 h,[2],36.6 µM
same,IC50 at 72 h,[3],24.2 µM
same,IC50,NCI-H209,45 µM
same,IC50,NCI-H446,39.3 µM
NC(=O)C1CCN(Cc2cc3c(cc2-c2cc4ccc5c(c4cn2)OCO5)OCO3)CC1,IC50,SHP77,41.5 µM
same,IC50,NCI-H82,63.4 µM
same,IC50,NCI-H1048,38.6 µM
same,IC50,[1],57.7 µM
same,IC50 at 72 h,[2],25.1 µM
same,IC50,NCI-H146,> 100 µM
same,IC50 at 72 h,[3],28.8 µM
same,IC50,NCI-H209,77 µM
same,IC50,NCI-H446,74.1 µM
CC(C)C1CCN(Cc2cc3c(cc2-c2cc4ccc5c(c4cn2)OCO5)OCO3)CC1,IC50,SHP77,8.17 µM
same,IC50,NCI-H82,1.7 µM
same,IC50,NCI-H1048,2.21 µM
same,IC50,[1],14.5 µM
same,IC50 at 72 h,[2],18.2 µM
same,IC50,NCI-H146,< 6.25 µM
same,IC50 at 72 h,[3],> 100 µM
same,IC50,NCI-H209,6.92 µM
same,IC50,NCI-H446,2.65 µM
c1c(CN2CCCCCC2)c(-c2cc3ccc4c(c3cn2)OCO4)cc2c1OCO2,IC50,SHP77,18 µM
same,IC50,NCI-H82,16.9 µM
same,IC50,NCI-H1048,15.4 µM
same,IC50,[1],24.3 µM
same,IC50 at 72 h,[2],14.4 µM
same,IC50 at 72 h,[3],12.3 µM
same,IC50,NCI-H209,39.5 µM
same,IC50,NCI-H446,15.2 µM
COCC1CCN(Cc2cc3c(cc2-c2cc4ccc5c(c4cn2)OCO5)OCO3)CC1,IC50,SHP77,38.5 µM
same,IC50,NCI-H82,55.6 µM
same,IC50,NCI-H1048,44.1 µM
same,IC50,[1],45.7 µM
same,IC50 at 72 h,[2],48.4 µM
same,IC50,NCI-H146,37.1 µM
same,IC50 at 72 h,[3],28.2 µM
same,IC50,NCI-H209,53.1 µM
same,IC50,NCI-H446,39.3 µM
c1c(CN2CCCCCCCC2)c(-c2cc3ccc4c(c3cn2)OCO4)cc2c1OCO2,IC50,SHP77,16.3 µM
same,IC50,NCI-H82,15 µM
same,IC50,NCI-H1048,7.22 µM
same,IC50,[1],13.9 µM
same,IC50 at 72 h,[2],24.8 µM
same,IC50,NCI-H146,14 µM
same,IC50 at 72 h,[3],17 µM
same,IC50,NCI-H209,30.7 µM
same,IC50,NCI-H446,12.5 µM
CC1CCN1Cc1cc2c(cc1-c1cc3ccc4c(c3cn1)OCO4)OCO2 (centres undefined),IC50,SHP77,42.6 µM
same,IC50,NCI-H82,56.2 µM
same,IC50,NCI-H1048,42.3 µM
same,IC50,[1],46.3 µM
same,IC50 at 72 h,[2],33.8 µM
same,IC50 at 72 h,[3],27.7 µM
same,IC50,NCI-H209,48.8 µM
same,IC50,NCI-H446,48.8 µM
CN1CCCN(Cc2cc3c(cc2-c2cc4ccc5c(c4cn2)OCO5)OCO3)CC1,IC50,SHP77,22.3 µM
same,IC50,NCI-H82,6.49 µM
same,IC50,NCI-H1048,32.1 µM
same,IC50,[1],19.8 µM
same,IC50 at 72 h,[2],> 100 µM
same,IC50 at 72 h,[3],> 100 µM
same,IC50,NCI-H209,> 50 µM
same,IC50,NCI-H446,10.4 µM
FC1CN(Cc2cc3c(cc2-c2cc4ccc5c(c4cn2)OCO5)OCO3)C1,IC50,SHP77,44.9 µM
same,IC50,NCI-H82,> 100 µM
same,IC50,NCI-H1048,74.1 µM
same,IC50,[1],> 100 µM
same,IC50 at 72 h,[2],59 µM
same,IC50 at 72 h,[3],75.6 µM
same,IC50,NCI-H209,> 100 µM
same,IC50,NCI-H446,49.8 µM
COC(=O)C1CCN(Cc2cc3c(cc2-c2cc4ccc5c(c4cn2)OCO5)OCO3)CC1,IC50,SHP77,> 100 µM
same,IC50,NCI-H82,> 100 µM
same,IC50,NCI-H1048,60.6 µM
same,IC50,[1],> 100 µM
same,IC50,NCI-H146,> 100 µM
same,IC50 at 72 h,[3],77.5 µM
same,IC50,NCI-H209,> 100 µM
same,IC50,NCI-H446,65.6 µM
CC1(F)CN(Cc2cc3c(cc2-c2cc4ccc5c(c4cn2)OCO5)OCO3)C1,IC50,SHP77,> 100 µM
same,IC50,NCI-H82,> 100 µM
same,IC50,NCI-H1048,> 100 µM
same,IC50,[1],> 100 µM
same,IC50 at 72 h,[2],> 100 µM
same,IC50 at 72 h,[3],> 100 µM
same,IC50,NCI-H209,> 100 µM
same,IC50,NCI-H446,38.5 µM
FC1CCCN(Cc2cc3c(cc2-c2cc4ccc5c(c4cn2)OCO5)OCO3)CC1 (centres undefined),IC50,SHP77,42.4 µM
same,IC50,NCI-H82,37.8 µM
same,IC50,NCI-H1048,17.7 µM
same,IC50,[1],35.7 µM
same,IC50 at 72 h,[2],> 100 µM
same,IC50 at 72 h,[3],33.7 µM
same,IC50,NCI-H209,58.3 µM
same,IC50,NCI-H446,20.6 µM
COc1ccc2cc3[n+](cc2c1OC)CCc1cc2c(cc1-3)OCO2 [BERBERINE],IC50,SHP77,> 100 µM
same,IC50,NCI-H1048,> 100 µM
same,IC50,[1],> 100 µM
same,IC50 at 72 h,[2],> 100 µM
same,IC50,NCI-H146,> 100 µM
same,IC50 at 72 h,[3],> 100 µM
same,IC50,NCI-H209,65 µM
same,IC50,NCI-H446,78.6 µM
CC(C)C1CCCCCN1Cc1cc2c(cc1-c1cc3ccc4c(c3cn1)OCO4)OCO2 (centres undefined),IC50,SHP77,8.23 µM
same,IC50,NCI-H82,1.72 µM
same,IC50,NCI-H1048,18.1 µM
same,IC50,[1],17.9 µM
same,IC50 at 72 h,[2],20.5 µM
same,IC50 at 72 h,[3],26.5 µM
same,IC50,NCI-H209,18.1 µM
same,IC50,NCI-H446,1.22 µM

# Reference: ChEMBL document CHEMBL6153083, “Synthesis, Structural Modification, and Antismall Cell Lung Cancer Activity of 3-Arylisoquinolines with Dual Inhibitory Activity on Topoisomerase I and II” (J Med Chem, 2025)
